Data published in patent US11629143B2, “HipK4 inhibitors and uses thereof” (Vibliome Therapeutics, LLC, priority 2020, dated 2023).

Columns and labels:
Assay in all cases: Kinase panel (mobility shift)
Type in all cases: biochemical
DDR2 = molecular target: T1, DDR2 (Homo sapiens, UniProt Q16832)
T1 sequence (Q16832 22-855): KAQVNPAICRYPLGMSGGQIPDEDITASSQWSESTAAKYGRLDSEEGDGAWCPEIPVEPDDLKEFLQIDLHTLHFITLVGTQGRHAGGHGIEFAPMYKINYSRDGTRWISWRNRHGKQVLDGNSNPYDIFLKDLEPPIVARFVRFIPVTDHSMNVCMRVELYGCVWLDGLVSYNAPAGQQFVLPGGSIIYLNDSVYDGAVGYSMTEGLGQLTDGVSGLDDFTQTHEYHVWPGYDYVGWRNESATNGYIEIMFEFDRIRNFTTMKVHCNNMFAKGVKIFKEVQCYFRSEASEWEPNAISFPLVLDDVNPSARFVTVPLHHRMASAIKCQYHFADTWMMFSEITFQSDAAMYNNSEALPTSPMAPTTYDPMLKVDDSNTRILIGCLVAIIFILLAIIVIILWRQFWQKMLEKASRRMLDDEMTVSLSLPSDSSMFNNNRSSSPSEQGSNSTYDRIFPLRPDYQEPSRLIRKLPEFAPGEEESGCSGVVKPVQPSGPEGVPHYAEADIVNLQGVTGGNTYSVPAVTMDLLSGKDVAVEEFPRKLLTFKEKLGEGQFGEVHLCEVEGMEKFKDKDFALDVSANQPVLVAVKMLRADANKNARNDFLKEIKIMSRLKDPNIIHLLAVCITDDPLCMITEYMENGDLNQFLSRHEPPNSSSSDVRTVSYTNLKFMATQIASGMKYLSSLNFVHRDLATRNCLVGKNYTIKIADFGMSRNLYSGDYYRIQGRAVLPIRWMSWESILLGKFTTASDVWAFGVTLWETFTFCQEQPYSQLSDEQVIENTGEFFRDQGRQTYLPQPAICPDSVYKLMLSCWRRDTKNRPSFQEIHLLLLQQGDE
Outline: (§1)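 Tested at a single 5 um concentration within a 299-kinase panel, compounds were scored by electrophoretic mobility shift of a fluorescent substrate into product. Categories: A, 95% or greater; B, 90%-94%; C, 80%-89%.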

EPH-B4 = molecular target: T2, EPH-B4 (Homo sapiens, UniProt P54760)
T2 sequence (P54760 16-987): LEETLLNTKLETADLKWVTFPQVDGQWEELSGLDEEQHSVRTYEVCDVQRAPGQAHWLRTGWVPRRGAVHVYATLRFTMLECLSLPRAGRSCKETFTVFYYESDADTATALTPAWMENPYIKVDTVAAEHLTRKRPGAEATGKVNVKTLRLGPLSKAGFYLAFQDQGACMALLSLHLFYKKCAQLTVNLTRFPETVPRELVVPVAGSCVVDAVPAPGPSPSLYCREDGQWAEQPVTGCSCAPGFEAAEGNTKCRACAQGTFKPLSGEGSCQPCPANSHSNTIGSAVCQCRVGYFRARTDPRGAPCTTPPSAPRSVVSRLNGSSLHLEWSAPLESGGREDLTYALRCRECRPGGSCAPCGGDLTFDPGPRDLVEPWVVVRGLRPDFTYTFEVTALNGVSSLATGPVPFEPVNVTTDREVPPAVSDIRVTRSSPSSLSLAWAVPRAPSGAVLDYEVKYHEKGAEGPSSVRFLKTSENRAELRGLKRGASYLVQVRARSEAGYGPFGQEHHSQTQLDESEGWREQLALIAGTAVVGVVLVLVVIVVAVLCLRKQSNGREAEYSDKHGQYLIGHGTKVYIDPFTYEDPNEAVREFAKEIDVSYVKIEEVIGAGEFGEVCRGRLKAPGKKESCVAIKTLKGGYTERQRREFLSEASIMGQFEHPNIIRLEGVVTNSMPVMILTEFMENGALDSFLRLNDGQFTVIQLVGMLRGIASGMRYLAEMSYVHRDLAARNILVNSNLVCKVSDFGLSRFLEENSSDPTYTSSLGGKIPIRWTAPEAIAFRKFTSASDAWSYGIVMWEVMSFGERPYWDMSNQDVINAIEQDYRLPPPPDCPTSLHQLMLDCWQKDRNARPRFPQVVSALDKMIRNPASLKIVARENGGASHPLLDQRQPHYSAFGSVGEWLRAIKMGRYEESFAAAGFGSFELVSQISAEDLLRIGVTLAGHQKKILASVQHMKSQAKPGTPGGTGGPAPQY
Outline: as §1

MER = molecular target: T3, MER (Homo sapiens, UniProt Q12866)
T3 sequence (Q12866 21-999): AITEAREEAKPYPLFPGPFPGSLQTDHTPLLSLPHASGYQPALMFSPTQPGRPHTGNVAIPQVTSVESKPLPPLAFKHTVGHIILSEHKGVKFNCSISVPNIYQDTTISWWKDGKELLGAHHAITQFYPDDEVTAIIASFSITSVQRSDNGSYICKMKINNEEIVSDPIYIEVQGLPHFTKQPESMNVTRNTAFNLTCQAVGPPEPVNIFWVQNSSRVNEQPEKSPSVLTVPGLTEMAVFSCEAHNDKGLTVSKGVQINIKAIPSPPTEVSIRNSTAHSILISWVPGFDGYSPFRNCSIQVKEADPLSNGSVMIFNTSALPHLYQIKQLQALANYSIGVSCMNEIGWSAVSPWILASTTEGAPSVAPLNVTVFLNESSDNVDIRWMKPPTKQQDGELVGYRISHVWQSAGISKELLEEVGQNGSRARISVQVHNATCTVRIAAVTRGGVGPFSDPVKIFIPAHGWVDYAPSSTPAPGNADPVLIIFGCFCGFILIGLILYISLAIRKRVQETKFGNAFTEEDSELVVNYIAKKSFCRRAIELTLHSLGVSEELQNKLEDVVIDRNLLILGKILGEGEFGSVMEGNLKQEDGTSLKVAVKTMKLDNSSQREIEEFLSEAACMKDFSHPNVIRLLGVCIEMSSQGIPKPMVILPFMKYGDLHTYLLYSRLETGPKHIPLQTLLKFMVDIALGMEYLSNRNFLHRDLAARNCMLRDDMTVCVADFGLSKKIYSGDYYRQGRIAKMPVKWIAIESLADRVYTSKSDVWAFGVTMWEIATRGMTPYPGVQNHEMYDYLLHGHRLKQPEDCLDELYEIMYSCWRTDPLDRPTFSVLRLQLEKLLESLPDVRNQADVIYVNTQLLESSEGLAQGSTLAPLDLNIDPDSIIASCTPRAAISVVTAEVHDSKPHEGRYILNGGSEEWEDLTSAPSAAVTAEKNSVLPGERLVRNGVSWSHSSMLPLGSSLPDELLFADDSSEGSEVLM
Outline: as §1

CSc1nc(C(=O)Nc2ccc(Oc3ccnc(C(=O)NC4COC4)c3)c(F)c2)c(-c2ccc(F)cc2)o1 [Compound 31]
inhibition at 5 µM (DDR2): 50 to 79% | inhibition at 5 µM (EPH-B4): < 50% | inhibition at 5 µM (MER): < 50%

CSc1nc(C(=O)Nc2ccc(Oc3ccnc(C(=O)NC4CNC4)c3)c(F)c2)c(-c2ccc(F)s2)o1 [Compound 27]
inhibition at 5 µM (DDR2): < 50% | inhibition at 5 µM (EPH-B4): < 50% | inhibition at 5 µM (MER): < 50%

COc1nc(C(=O)Nc2ccc(Oc3ccnc(C(=O)NC4COC4)c3)c(F)c2)c(-c2ccc(F)cc2)o1 [Compound 39]
inhibition at 5 µM (DDR2): 50 to 79% | inhibition at 5 µM (EPH-B4): < 50% | inhibition at 5 µM (MER): < 50%

CSc1nc(C(=O)Nc2ccc(Oc3ccnc(-c4cnn(C)c4)c3)c(F)c2)c(-c2ccc(F)cc2)o1 [Compound 11]
inhibition at 5 µM (DDR2): ≥ 95% | inhibition at 5 µM (EPH-B4): 80 to 89% | inhibition at 5 µM (MER): 90 to 94%

CNC(=O)c1cc(Oc2ccc(NC(=O)c3nc(OC)oc3-c3ccc(F)c(F)c3)cc2F)ccn1 [Compound 24]
inhibition at 5 µM (DDR2): 80 to 89% | inhibition at 5 µM (EPH-B4): < 50% | inhibition at 5 µM (MER): < 50%

CNC(=O)c1cc(Oc2ccc(NC(=O)c3nc(OCC(F)(F)F)oc3-c3ccc(F)cc3)cc2F)ccn1 [Compound 38]
inhibition at 5 µM (DDR2): 50 to 79% | inhibition at 5 µM (EPH-B4): 50 to 79% | inhibition at 5 µM (MER): 80 to 89%

CNC(=O)c1cc(Oc2ccc(NC(=O)c3nc(NC)sc3-c3ccc(F)cc3F)cc2F)ccn1 [Compound 21]
inhibition at 5 µM (DDR2): 50 to 79% | inhibition at 5 µM (EPH-B4): < 50% | inhibition at 5 µM (MER): < 50%

CNC(=O)c1cc(Oc2ccc(NC(=O)c3nc(SC)oc3-c3ccc(F)cc3F)cc2)ccn1 [Compound 6]
inhibition at 5 µM (DDR2): 80 to 89% | inhibition at 5 µM (EPH-B4): < 50% | inhibition at 5 µM (MER): 90 to 94%

CNC(=O)c1cc(Oc2ccc(NC(=O)c3nc(NC)oc3-c3ccc(F)cc3)cc2F)ccn1 [Compound 14]
inhibition at 5 µM (DDR2): ≥ 95% | inhibition at 5 µM (EPH-B4): 50 to 79% | inhibition at 5 µM (MER): 50 to 79%

CNC(=O)c1cc(Oc2ccc(NC(=O)c3nc(OC)oc3-c3ccc(F)s3)cc2F)ccn1 [Compound 25]
inhibition at 5 µM (DDR2): 50 to 79% | inhibition at 5 µM (EPH-B4): < 50% | inhibition at 5 µM (MER): < 50%

CSc1nc(C(=O)Nc2ccc(Oc3ccnc(C(=O)NCC(F)(F)F)c3)c(F)c2)c(-c2ccc(F)cc2)o1 [Compound 40]
inhibition at 5 µM (DDR2): 50 to 79% | inhibition at 5 µM (EPH-B4): < 50% | inhibition at 5 µM (MER): < 50%

CNC(=O)c1cc(Oc2ccc(NC(=O)c3nc(SC(C)C)oc3-c3ccc(F)cc3)cc2F)ccn1 [Compound 34]
inhibition at 5 µM (DDR2): 50 to 79% | inhibition at 5 µM (EPH-B4): 80 to 89% | inhibition at 5 µM (MER): 90 to 94%

CSc1nc(C(=O)Nc2ccc(Oc3cc4cnn(C)c4cc3Br)c(F)c2)c(-c2ccc(F)cc2)o1 [Compound 2]
inhibition at 5 µM (DDR2): 50 to 79% | inhibition at 5 µM (EPH-B4): < 50% | inhibition at 5 µM (MER): < 50%

CNC(=O)c1cc(Oc2ccc(NC(=O)c3nc(SC)oc3-c3ccc(F)s3)cc2F)ccn1 [Compound 16]
inhibition at 5 µM (DDR2): < 50% | inhibition at 5 µM (EPH-B4): < 50% | inhibition at 5 µM (MER): < 50%

CNC(=O)c1cc(Oc2ccc(NC(=O)c3nc(S(C)(=O)=O)sc3-c3ccc(F)cc3)cc2F)ccn1 [Compound 13]
inhibition at 5 µM (DDR2): 80 to 89% | inhibition at 5 µM (EPH-B4): 50 to 79% | inhibition at 5 µM (MER): 80 to 89%

CNC(=O)c1cc(Oc2ccc(NC(=O)c3nc(NC)sc3-c3ccc(F)cc3C)cc2F)ccn1 [Compound 23]
inhibition at 5 µM (DDR2): 50 to 79% | inhibition at 5 µM (EPH-B4): 50 to 79% | inhibition at 5 µM (MER): 50 to 79%

CNC(=O)c1cc(Oc2c(F)cc(NC(=O)c3nc(NC)sc3-c3ccc(F)cc3)cc2F)ccn1 [Compound 19]
inhibition at 5 µM (DDR2): 80 to 89% | inhibition at 5 µM (EPH-B4): 50 to 79% | inhibition at 5 µM (MER): 50 to 79%

CNC(=O)c1cc(Oc2ccc(NC(=O)c3nc(OC4CC4)oc3-c3ccc(F)cc3)cc2F)ccn1 [Compound 32]
inhibition at 5 µM (DDR2): 80 to 89% | inhibition at 5 µM (EPH-B4): 50 to 79% | inhibition at 5 µM (MER): 80 to 89%

CNC(=O)c1cc(Oc2ccc(NC(=O)c3nc(C4CC4)oc3-c3ccc(F)cc3)cc2F)ccn1 [Compound 26]
inhibition at 5 µM (DDR2): 80 to 89% | inhibition at 5 µM (EPH-B4): 80 to 89% | inhibition at 5 µM (MER): 80 to 89%

CNC(=O)c1cc(Oc2ccc(NC(=O)c3nc(OC)oc3-c3ccc(F)cc3)cc2F)ccn1 [Compound 15]
inhibition at 5 µM (DDR2): 90 to 94% | inhibition at 5 µM (EPH-B4): 50 to 79% | inhibition at 5 µM (MER): 50 to 79%

CNC(=O)c1cc(Oc2ccc(NC(=O)c3nc(SC)oc3-c3ccc(F)cc3Cl)cc2)ccn1 [Compound 3]
inhibition at 5 µM (DDR2): 80 to 89% | inhibition at 5 µM (EPH-B4): < 50% | inhibition at 5 µM (MER): 90 to 94%

CSc1nc(C(=O)Nc2ccc(Oc3ccnc(C(=O)NCCN(C)C)c3)c(F)c2)c(-c2ccc(F)cc2)o1 [Compound 41]
inhibition at 5 µM (DDR2): 50 to 79% | inhibition at 5 µM (EPH-B4): < 50% | inhibition at 5 µM (MER): 50 to 79%

CNC(=O)c1cc(Oc2ccc(NC(=O)c3nc(NC)oc3-c3ccc(F)s3)cc2F)ccn1 [Compound 17]
inhibition at 5 µM (DDR2): 50 to 79% | inhibition at 5 µM (EPH-B4): < 50% | inhibition at 5 µM (MER): < 50%

COc1nc(C(=O)Nc2ccc(Oc3ccnc(C(=O)NCC(F)(F)F)c3)c(F)c2)c(-c2ccc(F)cc2)o1 [Compound 43]
inhibition at 5 µM (DDR2): < 50% | inhibition at 5 µM (EPH-B4): < 50% | inhibition at 5 µM (MER): < 50%

CNC(=O)c1cc(Oc2ccc(NC(=O)c3nc(COC)oc3-c3ccc(F)cc3)cc2F)ccn1 [Compound 30]
inhibition at 5 µM (DDR2): 90 to 94% | inhibition at 5 µM (EPH-B4): 80 to 89% | inhibition at 5 µM (MER): 80 to 89%

CSc1nc(C(=O)Nc2ccc(Oc3ccnc(C(=O)NC4COC4)c3)c(F)c2)c(-c2ccc(F)c(F)c2)o1 [Compound 37]
inhibition at 5 µM (DDR2): < 50% | inhibition at 5 µM (EPH-B4): < 50% | inhibition at 5 µM (MER): < 50%

CNC(=O)c1cc(Oc2ccc(NC(=O)c3nc(SC)oc3-c3ccc(Cl)s3)cc2)ccn1 [Compound 5]
inhibition at 5 µM (DDR2): 80 to 89% | inhibition at 5 µM (EPH-B4): < 50% | inhibition at 5 µM (MER): < 50%
